Experimental data reported in publication PMC10678405, “2126. Safety, Tolerability, and Pharmacokinetics (PK) in Healthy Participants Following Single Dose Administration of Zosurabalpin, a Novel Pathogen-Specific Antibiotic for the Treatment of Serious Acinetobacter Infections” (Open Forum Infectious Diseases, 2023).
Read-outs that look alike come from different tables or passages of the source.

Assays:
[1] = single IV dose; for dose proportionality of plasma exposures (Cmax and AUCinf): healthy participants
Text: (§1) Methods The entry-into-human study (BP41732) was a double-blind, placebo-controlled, randomized, single-and multiple ascending dose study in healthy participants. In Part 1 (SAD) of Study BP41732, participants were randomized 3:1 to receive IV zosurabalpin or placebo in sequential single ascending dose cohorts. The mass balance study (BP43532) was a non-randomized, non-controlled, open-label, single IV dose study in healthy male participants. […] Disclosures Andreas Guenther, PhD, F. Hoffmann-La Roche Ltd: Employee Amanda Messer, BPharm, Roche Products Ltd: Employee Mylène Giraudon, PharmD, F. Hoffmann-La Roche Ltd: Employee Katie Patel, MSc, Roche Products Limited: Employer|Roche Products Limited: Stocks/Bonds Erik J. Deurloo, MSc, F. Hoffmann-La Roche Ltd: Salary|F. Hoffmann-La Roche Ltd: Stocks/Bonds Michael Lobritz, MD, PhD, Roche: full time employee|Roche: full time employee

healthy participants = test system: healthy participants
Text: as §1

[2] = healthy male participants, study BP43532, average
[3] = healthy participants, single IV dose 10 mg to 2000 mg

CN1C(=O)[C@H](CCCCN)NC(=O)[C@H](CCCN)NCc2cccnc2Sc2cccc(-c3ccc(C(=O)O)cc3)c2CNC(=O)[C@@H]1Cc1c[nH]c2ccccc12 [zosurabalpin, Zosurabalpin]
total [14C]-radioactivity recovered in feces, % of the administered dose [1, 2]: 48.0 % of the administered dose
total [14C]-radioactivity recovered in urine, % of the administered dose [1, 2]: 52.6 % of the administered dose
dose proportionality of plasma exposures (Cmax and AUCinf) ([1]; above 1000 mg up to 2000 mg): more than dose-proportionally
dose proportionality of plasma exposures (Cmax and AUCinf) ([1]; up to 1000 mg): increased approximately dose-proportionally
treatment-related infusion-related reactions (IRRs), participants affected / participants dosed (healthy participants; healthy male and female participants, single IV dose 10 mg to 2000 mg, studies BP41732 Part 1 (SAD) and BP43532, preliminary data): 9/64
changes in laboratory values, ECGs or vital signs compared to placebo (healthy participants; [3]): did not show any clinically significant changes
dose dependence of IRR occurrence (healthy participants; [3]): appeared to be dose-dependent
overall safety and tolerability (healthy participants; healthy participants, single IV doses of 10 mg to 2000 mg): safe and overall well tolerated
